Test: Phase I dose-escalation: safety, tolerability, DLT and MTD of weekly 1-h IV infusion
Assay type: in vivo
Experimental: The study was an open-label, multicentre, phase 1 dose-escalation study using a 3 + 3 design. The primary objective was to determine the MTD of weekly administered PG545 via IV infusion. Secondary objectives were to characterize safety, tolerability, clinical activity, PK and PD biomarkers.
Patients continued treatment until disease progression, unacceptable toxicity or withdrawal (either voluntarily or investigator-decision).
All patients were assessed for safety, those who received at least one dose of PG545 were evaluated for efficacy. Safety assessment included the incidence of all adverse events (AEs), irrespective of relationship to study drug, according to the National Cancer Institute Common Terminology Criteria for Adverse Events, version 4.0, and the incidence of patients experiencing dose modifications and/or premature discontinuation of study drug. Dose-limiting toxicities (DLTs) used to determine the MTD were defined as occurring during Cycle 1 of treatment only and related to PG545 according to investigator assessment. If no DLT occurred in the first three subjects, the next three-subject cohort was enrolled at the next highest available dose level. If a single DLT occurred, an additional three subjects was enrolled at the same dose level. Dose escalation continued until two subjects of the cohort experienced a DLT; this was defined as the toxic dose level. The dose-escalation phase was completed and MTD determined by reducing the dose to the next lowest dose compared to the toxic dose and expanding this cohort to at least 6 subjects.

[1] = Moderate, Unrelated, Safety Set

CC(C)CCC[C@@H](C)[C@H]1CC[C@H]2[C@@H]3CC[C@H]4C[C@@H](O[C@@H]5O[C@H](COS(=O)(=O)O)[C@@H](O[C@H]6O[C@H](COS(=O)(=O)O)[C@@H](O[C@H]7O[C@H](COS(=O)(=O)O)[C@@H](O[C@H]8O[C@H](COS(=O)(=O)O)[C@@H](OS(=O)(=O)O)[C@H](OS(=O)(=O)O)[C@H]8OS(=O)(=O)O)[C@H](OS(=O)(=O)O)[C@H]7OS(=O)(=O)O)[C@H](OS(=O)(=O)O)[C@H]6OS(=O)(=O)O)[C@H](OS(=O)(=O)O)[C@H]5OS(=O)(=O)O)CC[C@]4(C)[C@H]3CC[C@]12C [PG545]
2 (8.7%): TEAE: Headache [1] | TEAE: Nausea [1] | TEAE: Nervous system disorders [1] | TEAE: Psychiatric disorders [1] | TEAE: Chills (Severe, Related, Safety Set) | TEAE: Fatigue (Severe, Related, Safety Set) | TEAE: Investigations (Severe, Related, Safety Set) | TEAE: Blood ALP increased (Severe, Unrelated, Safety Set) | TEAE: Investigations (Severe, Unrelated, Safety Set) | TEAE: Metabolism and nutritional disorders (Severe, Unrelated, Safety Set)
4 (17.4%): TEAE: Metabolism and nutritional disorders [1] | TEAE: Respiratory, thoracic and mediastinal disorders [1]
5 (21.7%): TEAE: General disorders and administration site conditions [1] | TEAE: Hypertension (Severe, Related, Safety Set) | TEAE: Vascular disorders (Severe, Related, Safety Set)
six: Treatment-related hypertension, occurrences (all cohorts)
6 (26.1%): TEAE: Musculoskeletal and connective tissue disorders [1]
two: SAEs graded fatal (of the 12 SAEs, death due to disease progression)
11 (47.8%): TEAE: At least one event (Severe, Related, Safety Set)
Five: SAEs resulting in withdrawal or discontinuation (in vivo)
2 (8.7 %): TEAE: Respiratory, thoracic and mediastinal disorders (Severe, Related, Safety Set) | TEAE: Gastrointestinal disorders (Severe, Unrelated, Safety Set)
100 mg: Maximum-tolerated dose (MTD) (weekly 1-h IV infusion)
7 (30.4%): TEAE: At least one event (Severe, Unrelated, Safety Set)
nine: SAEs graded severe (of the 12 SAEs)
one: SAEs graded mild (of the 12 SAEs)
150 mg: Toxic dose (weekly 1-h IV infusion)
2 (9) n (%): Blood cholesterol increased, treatment-related AE (Overall, N = 23) | Chills, related severe AE (Overall, N = 23) | Fatigue, related severe AE (Overall, N = 23) | Headache, treatment-related AE (Overall, N = 23) | Hypercholesterolemia, treatment-related AE (Overall, N = 23) | Injection site reaction, treatment-related AE (Overall, N = 23)
< 24 h: Duration of hypertensive episodes (transient)
3 (13.0%): TEAE: Investigations [1]
4 (17) n (%): Diarrhoea, treatment-related AE (Overall, N = 23)
4 (17.5%): TEAE: General disorders and administration site conditions (Severe, Related, Safety Set)
Six: SAEs possibly, likely or certainly related to PG545 (investigator assessment)
1 (4) n (%): Acute pulmonary oedema, related AE leading to discontinuation (Overall, N = 23) | Acute pulmonary oedema, related serious AE (Overall, N = 23) | Acute pulmonary oedema, related severe AE (Overall, N = 23) | Blood cholesterol increased, related severe AE (Overall, N = 23) | Blood pressure increased, related severe AE (Overall, N = 23) | Chills, related AE leading to discontinuation (Overall, N = 23) | Epistaxis, related AE leading to discontinuation (Overall, N = 23) | Epistaxis, related serious AE (Overall, N = 23) | Epistaxis, related severe AE (Overall, N = 23) | Hyperlipidaemia, related severe AE (Overall, N = 23) | Hypertension, related AE leading to discontinuation (Overall, N = 23) | Hypertension, related serious AE (Overall, N = 23) | Hypovolaemia, related serious AE (Overall, N = 23) | Infusion-related reaction, related serious AE (Overall, N = 23) | Infusion-related reaction, related severe AE (Overall, N = 23) | Pyrexia, related AE leading to discontinuation (Overall, N = 23) | Pyrexia, related serious AE (Overall, N = 23) | Pyrexia, related severe AE (Overall, N = 23)
1 (4.3%): TEAE: Groin pain [1] | TEAE: Hypoalbuminaemia [1] | TEAE: Infections and infestations [1] | TEAE: Insomnia [1] | TEAE: Intestinal obstruction [1] | TEAE: Malaise [1] | TEAE: Musculoskeletal pain [1] | TEAE: Neutrophil count increased [1] | TEAE: Pain in extremity [1] | TEAE: Platelet count increased [1] | TEAE: Upper respiratory tract infection [1] | TEAE: White blood cell count increased [1] | TEAE: Acute pulmonary oedema (Severe, Related, Safety Set) | TEAE: Blood cholesterol increased (Severe, Related, Safety Set) | TEAE: Blood pressure increased (Severe, Related, Safety Set) | TEAE: Epistaxis (Severe, Related, Safety Set) | TEAE: Hyperlipidaemia (Severe, Related, Safety Set) | TEAE: Infusion related reaction (Severe, Related, Safety Set) | TEAE: Injury, poisoning and procedural complications (Severe, Related, Safety Set) | TEAE: Metabolism and nutritional disorders (Severe, Related, Safety Set) | TEAE: Pyrexia (Severe, Related, Safety Set) | TEAE: AST increased (Severe, Unrelated, Safety Set) | TEAE: Anaemia (Severe, Unrelated, Safety Set) | TEAE: Blood and lymphatic system disorders (Severe, Unrelated, Safety Set) | TEAE: Chest pain (Severe, Unrelated, Safety Set) | TEAE: Constipation (Severe, Unrelated, Safety Set) | TEAE: Dehydration (Severe, Unrelated, Safety Set) | TEAE: Dysuria (Severe, Unrelated, Safety Set) | TEAE: GGT increased (Severe, Unrelated, Safety Set) | TEAE: General disorders and administration site conditions (Severe, Unrelated, Safety Set) | TEAE: Hyponatraemia (Severe, Unrelated, Safety Set) | TEAE: Infections and infestations (Severe, Unrelated, Safety Set) | TEAE: Lower respiratory tract infection (Severe, Unrelated, Safety Set) | TEAE: Renal and urinary disorders (Severe, Unrelated, Safety Set) | TEAE: Small intestinal obstruction (Severe, Unrelated, Safety Set)
12: Serious adverse events (SAEs), number (all cohorts)
5 (22) n (%): Chills, treatment-related AE (Overall, N = 23) | Decreased appetite, treatment-related AE (Overall, N = 23) | Fatigue, treatment-related AE (Overall, N = 23) | Hypertension, related severe AE (Overall, N = 23) | Infusion-related reaction, treatment-related AE (Overall, N = 23) | Nausea, treatment-related AE (Overall, N = 23) | Pyrexia, treatment-related AE (Overall, N = 23)
6 (26) n (%): Hypertension, treatment-related AE (Overall, N = 23)
